Assay results published in PubChem BioAssay (NCI).
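All cell lines were grown in 96-well plates and treated with compound for 48 hours. TGI marks complete inhibition of growth.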

Columns and labels:
Assay in all cases: growth of human tumour cells (NCI), 48 h
[1] = tested on: DLD-1 colon
[2] = tested on: NCI/ADR-RES ovarian
[3] = tested on: SN12C renal
[4] = tested on: SK-OV-3 ovarian
[5] = tested on: UO-31 renal
[6] = tested on: MCF7 breast
[7] = tested on: 786-0 renal
[8] = tested on: M19-MEL melanoma
[9] = tested on: SF-268 CNS
[10] = tested on: NCI-H226 lung
[11] = tested on: DU-145 prostate
[12] = tested on: LXFL 529 NSCLC

## CNC=O
[1]
  TGI: > 10000 µM
[2]
  TGI: > 10000 µM
[3]
  TGI: > 7740 µM
[4]
  TGI: < 3980 µM
[5]
  TGI: > 10000 µM
[6]
  TGI: > 10000 µM
[7]
  TGI: > 10000 µM
[8]
  TGI: > 10000 µM
[9]
  TGI: > 10000 µM
[10]
  TGI: > 10000 µM
[11]
  TGI: > 10000 µM

## O=C(c1ccc(Cl)cc1)N(C(=S)N1CCN(c2ccccc2)CC1)c1ccccc1
[1]
  TGI: > 100 µM
[3]
  TGI: > 100 µM
[12]
  TGI: > 100 µM
[4]
  TGI: > 100 µM
[5]
  TGI: > 100 µM
[7]
  TGI: > 100 µM
[8]
  TGI: > 100 µM
[9]
  TGI: > 100 µM
[10]
  TGI: > 100 µM

## CCCN(CCC)C(=O)Cc1c2n(c3ccccc13)Cc1ccccc1-2
[1]
  TGI: > 100 µM
[3]
  TGI: > 100 µM
[12]
  TGI: > 100 µM
[4]
  TGI: > 100 µM
[5]
  TGI: > 100 µM
[7]
  TGI: > 100 µM
[8]
  TGI: > 100 µM
[9]
  TGI: > 100 µM
[10]
  TGI: > 100 µM

## C/C(=C1/N=C(c2cc([N+](=O)[O-])ccc2Cl)N(C2=CC=C(Cl)CC2)C1=O)c1cc2ccccc2oc1=O
[1]
  TGI: > 100 µM
[3]
  TGI: > 100 µM
[12]
  TGI: > 100 µM
[4]
  TGI: > 100 µM
[5]
  TGI: > 100 µM
[8]
  TGI: > 100 µM
[9]
  TGI: > 100 µM
[10]
  TGI: > 100 µM

## CCCC(=O)N[C@@H](Cc1cc(I)c(O)c(I)c1)C(=O)NCCCNCCCCNCCCNC(=O)[C@@H](N)CCCN=C(N)N
[3]
  TGI: > 100 µM
[12]
  TGI: > 100 µM
[5]
  TGI: > 100 µM
[7]
  TGI: > 100 µM
[8]
  TGI: > 100 µM
[10]
  TGI: > 100 µM

## Nc1ccccc1Sc1ccc(Cl)cc1
[1]
  TGI: > 100 µM
[3]
  TGI: 56.1 µM
[12]
  TGI: > 100 µM
[4]
  TGI: > 100 µM
[5]
  TGI: 51 µM
[8]
  TGI: 60.7 µM
[9]
  TGI: > 100 µM
[10]
  TGI: 26.2 µM

## Cc1ccc(S(=O)(=O)OCC23CCC(C4CC42)C2CC23)cc1 (configuration not stated)
[1]
  TGI: > 100 µM
[3]
  TGI: > 100 µM
[12]
  TGI: > 100 µM
[4]
  TGI: > 100 µM
[5]
  TGI: > 100 µM
[7]
  TGI: > 100 µM
[8]
  TGI: > 100 µM
[9]
  TGI: > 100 µM
[10]
  TGI: > 100 µM

## CC1OC(OC2C(Oc3cc(O)c4c(=O)cc(-c5ccc(O)cc5)oc4c3)OC(CO)C(O)C2O)C(O)C(O)C1O (configuration not stated)
[1]
  TGI: > 100 µM
[3]
  TGI: > 100 µM
[12]
  TGI: > 100 µM
[4]
  TGI: > 100 µM
[5]
  TGI: > 100 µM
[7]
  TGI: > 100 µM
[8]
  TGI: > 100 µM
[9]
  TGI: > 100 µM

## CC(=O)/C=C/c1c[nH]c(=O)[nH]c1=O
[1]
  TGI: 790 µM
[2]
  TGI: 781 µM
[3]
  TGI: 573 µM
[4]
  TGI: 703 µM
[5]
  TGI: 397 µM
[6]
  TGI: 516 µM
[8]
  TGI: 771 µM
[9]
  TGI: 720 µM
[10]
  TGI: 565 µM

## COc1ccc(S(=O)Cc2cc(OC)ccc2OC)cc1 (configuration not stated)
[2]
  TGI: > 100 µM
[3]
  TGI: > 100 µM
[4]
  TGI: > 100 µM
[5]
  TGI: > 100 µM
[6]
  TGI: > 100 µM
[7]
  TGI: > 100 µM
[9]
  TGI: > 100 µM
[10]
  TGI: > 100 µM
[11]
  TGI: > 100 µM

## Cn1c2c(c3ccccc31)CC(=O)N1CCCCC1C21OCCO1 (configuration not stated)
[2]
  TGI: > 100 µM
[3]
  TGI: > 100 µM
[4]
  TGI: > 100 µM
[5]
  TGI: > 100 µM
[6]
  TGI: > 100 µM
[7]
  TGI: > 100 µM
[9]
  TGI: > 100 µM
[10]
  TGI: > 100 µM
[11]
  TGI: > 100 µM

## O=C(NCCCCNCCCNC(=O)C(F)(F)F)C(F)(F)F
[2]
  TGI: > 100 µM
[3]
  TGI: > 100 µM
[4]
  TGI: 65.5 µM
[5]
  TGI: > 100 µM
[6]
  TGI: > 100 µM
[7]
  TGI: > 100 µM
[9]
  TGI: > 100 µM
[10]
  TGI: > 100 µM
[11]
  TGI: > 100 µM

## COC(=O)c1ccc(NCC2=CC(=O)c3ccccc3C2=O)cc1
[2]
  TGI: 90.6 µM
[3]
  TGI: 59.3 µM
[4]
  TGI: 35.3 µM
[5]
  TGI: 35.8 µM
[6]
  TGI: > 100 µM
[7]
  TGI: 43.2 µM
[9]
  TGI: 66.2 µM
[10]
  TGI: 39.2 µM
[11]
  TGI: 31.3 µM

## Cc1cc2c(cc1Cl)Sc1nnc(C)n1S2(=O)=O
[2]
  TGI: 69.8 µM
[3]
  TGI: 34.3 µM
[4]
  TGI: 75.2 µM
[5]
  TGI: 24.1 µM
[6]
  TGI: 18.1 µM
[7]
  TGI: 44.5 µM
[9]
  TGI: 42.4 µM
[10]
  TGI: > 100 µM
[11]
  TGI: 65 µM
